In ChEMBL document CHEMBL3352596, “Discovery of novel inhibitors of vascular endothelial growth factor-A-Neuropilin-1 interaction by structure-based virtual screening” (Bioorg Med Chem, 2014):

Molecular target: Neuropilin-1 (Rattus norvegicus) (UniProt Q9QWJ9)
Experiment: Inhibition of biotinylated VEGF-A165 from rat recombinant NRP-1 Fc domain at 100 uM

Compound	inhibition [%]
CC[C@@H](C)NCCCOc1ccc(Cl)c(C)c1C	52.3
CC(C)NCc1ccccc1OCc1ccc(Cl)cc1	44.8
Clc1ccc(COc2ccc(CNC3CC3)cc2)cc1	47.3
COc1cc(CNCCO)cc(Br)c1OCc1ccccc1Cl	60.5
OCCNCc1ccc(OCc2ccccc2)c(Cl)c1	45.1
CCNCc1cc(Cl)c(OCc2ccccc2Cl)c(OC)c1	59.2
Cc1cc(O)c(C(=O)COc2ccccc2)c(O)c1	55.3
H-ATWLPPR-OH	91.5
CC(=O)Nc1ccc2nc(-c3ccccc3C)oc2c1	53.3
CC[C@H](C)c1ccccc1OCCCCN(CC)CC	41.6
CCCNCc1ccc(OCc2ccc(Cl)cc2Cl)c(OC)c1	60.2
CCOc1cc(CNCCO)ccc1OCc1ccc(Cl)cc1Cl	71.5

Molecular target: Neuropilin-1 (Rattus norvegicus, UniProt Q9QWJ9)
Experiment: Inhibition of biotinylated VEGF-A165 from rat recombinant NRP-1 Fc domain

Compound	Ki [µM]
CCOc1cc(CNCCO)cc(Br)c1OCc1ccc(Cl)cc1Cl	10.7
H-ATWLPPR-OH	5.2
CCOc1cc(CNCc2ccccc2)cc(Cl)c1OCc1ccccc1Cl	11.3
COc1cc(CNCCO)cc(Cl)c1OCc1ccc(Cl)cc1Cl	7.3
COc1cc(CNC(C)c2ccccc2)cc(Br)c1OCc1ccccc1Cl (configuration not stated)	9.4
